Test results reported in the supplement of paper PMC11061612.

Tests used:
Assay in all cases: combination Emax (second highest fraction inhibited in the dose matrix, 72 h); higher = more inhibition; extreme values may be limits of the assay
[1] = system: BFTC-905 (Bladder Carcinoma)
In short: (§1)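 Bliss excess equals the observed combination effect minus the expected value EA + EB − EA·EB, where EA and EB are the effects of each agent alone. Combination Emax is the second-highest inhibition within the matrix. Inhibition was scaled from CellTiter-Glo 2.0 luminescence, with 0 set by vehicle wells and 1 by blank wells, after 72 hours of two-drug dosing of cells plated in 1536-well plates.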

[2] = system: BL-41 (Burkitt's Lymphoma)
In short: as §1

[3] = system: CAMA-1 (Breast Carcinoma)
In short: as §1

[4] = system: COLO-678 (Colorectal Carcinoma)
In short: as §1

[5] = system: DiFi (Colorectal Carcinoma)
In short: as §1

ES8 (Ewing's Sarcoma) = system: ES8 (Ewing's Sarcoma)
In short: as §1

[6] = system: EVSA-T (Breast Carcinoma)
In short: as §1

[7] = system: HL-60 (Acute Myeloid Leukemia)
In short: as §1

[8] = system: KM12 (Colorectal Carcinoma)
In short: as §1

[9] = system: KYSE-180 (Esophageal Squamous Cell Carcinoma)
In short: as §1

LN-18 (Glioblastoma) = system: LN-18 (Glioblastoma)
In short: as §1

MEL-JUSO (Melanoma) = system: MEL-JUSO (Melanoma)
In short: as §1

[10] = system: MOLT-16 (T-Lymphoblastic Leukemia)
In short: as §1

[11] = system: SW1417 (Colorectal Carcinoma)
In short: as §1

[12] = system: SW837 (Colorectal Carcinoma)
In short: as §1

[13] = system: TE-6 (Esophageal Squamous Cell Carcinoma)
In short: as §1

[14] = system: TOV-112D (Ovarian Carcinoma)
In short: as §1

U251 (Low Grade Glioma) = system: U251 (Low Grade Glioma)
In short: as §1

WIL2-NS (Non-Cancerous) = system: WIL2-NS (Non-Cancerous)
In short: as §1

Row | SMILES | combination Emax [1] | combination Emax [2] | combination Emax [3] | combination Emax [4] | combination Emax [5] | combination Emax (ES8 (Ewing's Sarcoma)) | combination Emax [6] | combination Emax [7] | combination Emax [8] | combination Emax [9] | combination Emax (LN-18 (Glioblastoma)) | combination Emax (MEL-JUSO (Melanoma)) | combination Emax [10] | combination Emax [11] | combination Emax [12] | combination Emax [13] | combination Emax [14] | combination Emax (U251 (Low Grade Glioma)) | combination Emax (WIL2-NS (Non-Cancerous))
1 | CN(C)CCCOc1ccc(-c2ccc3ncc4c(c3c2)n(C2CCOCC2)c(=O)n4C)cn1 [AZD0156] + C=CCn1c(=O)c2cnc(Nc3ccc(N4CCN(C)CC4)cc3)nc2n1-c1cccc(C(C)(C)O)n1 [AZD1775] (first compound max 1 µM, partner max 1 µM) | 0.517 | 1 | 0.104 | 0.226 | 0.637 | 0.646 | 0.221 | 0.387 | 0.731 | 0.749 | 0.291 | 0.486 | 1 | 0.407 | 0.237 | 0.232 | 0.475 | 0.398 | 0.976
2 | CN(C)CCCOc1ccc(-c2ccc3ncc4c(c3c2)n(C2CCOCC2)c(=O)n4C)cn1 [AZD0156] + CCN(CCO)CCCOc1ccc2c(Nc3cc(CC(=O)Nc4cccc(F)c4)[nH]n3)ncnc2c1 [AZD2811] (first compound max 1 µM, 7x7, partner max 1 µM) | 0.428 | 0.744 | 0.14 | 0.144 | 0.416 | 1 | 0.269 | 0.832 | 0.0745 | 0.0693 | 0.33 | 0.16 | 1 | 0.104 | 0.0741 | 0.236 | 0.35 | 0.179 | 0.201
3 | CN(C)CCCOc1ccc(-c2ccc3ncc4c(c3c2)n(C2CCOCC2)c(=O)n4C)cn1 [AZD0156] + C[C@@H]1COCCN1C2=NC(=NC(=C2)C3(CC3)[S@](=N)(=O)C)C4=C5C=CNC5=NC=C4 [AZD6738] (first compound max 1 µM, 7x7, partner max 10 µM) | 0.891 | 1 | 0.273 | 0.123 | 0.829 | 0.799 | 0.495 | 0.751 | 0.696 | 0.915 | 0.725 | 0.525 | 1 | 0.33 | 0.466 | 0.636 | 0.717 | 0.584 | 0.988
4 | C=CCn1c(=O)c2cnc(Nc3ccc(N4CCN(C)CC4)cc3)nc2n1-c1cccc(C(C)(C)O)n1 [AZD1775] + C[C@@H]1COCCN1C2=NC(=NC(=C2)C3(CC3)[S@](=N)(=O)C)C4=C5C=CNC5=NC=C4 [AZD6738] (first compound max 1 µM, partner max 10 µM) | 0.964 | 1 | 0.46 | 0.199 | 0.895 | 0.905 | 0.483 | 0.893 | 0.852 | 0.939 | 0.736 | 0.496 | 1 | 0.655 | 0.636 | 0.669 | 0.764 | 0.773 | 1
5 | C=CCn1c(=O)c2cnc(Nc3ccc(N4CCN(C)CC4)cc3)nc2n1-c1cccc(C(C)(C)O)n1 [AZD1775] + O=C(c1cc(Cc2n[nH]c(=O)c3ccccc23)ccc1F)N1CCN(C(=O)C2CC2)CC1 [Olaparib] (first compound max 1 µM, partner max 10 µM) | 0.55 | 1 | 0.149 | 0.205 | 0.678 | 0.829 | 0.289 | 0.36 | 0.748 | 0.774 | 0.217 | 0.401 | 1 | 0.564 | 0.39 | 0.319 | 0.427 | 0.442 | 0.931
6 | CCN(CCO)CCCOc1ccc2c(Nc3cc(CC(=O)Nc4cccc(F)c4)[nH]n3)ncnc2c1 [AZD2811] + C=CCn1c(=O)c2cnc(Nc3ccc(N4CCN(C)CC4)cc3)nc2n1-c1cccc(C(C)(C)O)n1 [AZD1775] (first compound max 1 µM, partner max 1 µM) | 0.531 | 1 | 0.171 | 0.278 | 0.671 | 1 | 0.257 | 0.845 | 0.705 | 0.726 | 0.458 | 0.333 | 1 | 0.412 | 0.15 | 0.236 | 0.712 | 0.266 | 0.944
7 | CCN(CCO)CCCOc1ccc2c(Nc3cc(CC(=O)Nc4cccc(F)c4)[nH]n3)ncnc2c1 [AZD2811] + C[C@@H]1COCCN1C2=NC(=NC(=C2)C3(CC3)[S@](=N)(=O)C)C4=C5C=CNC5=NC=C4 [AZD6738] (first compound max 1 µM, 7x7, partner max 10 µM) | 0.838 | 1 | 0.304 | 0.165 | 0.819 | 1 | 0.289 | 0.899 | 0.612 | 0.823 | 0.585 | 0.357 | 1 | 0.341 | 0.361 | 0.543 | 0.707 | 0.533 | 0.979
8 | CCN(CCO)CCCOc1ccc2c(Nc3cc(CC(=O)Nc4cccc(F)c4)[nH]n3)ncnc2c1 [AZD2811] + O=C(c1cc(Cc2n[nH]c(=O)c3ccccc23)ccc1F)N1CCN(C(=O)C2CC2)CC1 [Olaparib] (first compound max 1 µM, 7x7, partner max 10 µM) | 0.502 | 0.603 | 0.206 | 0.153 | 0.516 | 0.997 | 0.31 | 0.83 | 0.176 | 0.176 | 0.287 | 0.243 | 1 | 0.109 | 0.183 | 0.212 | 0.394 | 0.273 | 0.397
9 | C[C@@H]1COCCN1c1cc(C2([S@](C)(=N)=O)CC2)nc(-c2ccnc3[nH]ccc23)n1 [AZD6738] + O=C(c1cc(Cc2n[nH]c(=O)c3ccccc23)ccc1F)N1CCN(C(=O)C2CC2)CC1 [Olaparib] (first compound max 10 µM, 7x7, partner max 10 µM) | 0.873 | 1 | 0.322 | 0.159 | 0.775 | 0.895 | 0.346 | 0.619 | 0.615 | 0.76 | 0.877 | 0.418 | 1 | 0.38 | 0.343 | 0.498 | 0.795 | 0.661 | 0.968
10 | Cc1cc2ncnn2cc1Nc1ncc2c(n1)n(C1CCOCC1)c(=O)n2C [AZD7648] + C=CCn1c(=O)c2cnc(Nc3ccc(N4CCN(C)CC4)cc3)nc2n1-c1cccc(C(C)(C)O)n1 [AZD1775] (first compound max 10 µM, partner max 1 µM) | 0.56 | 1 | 0.303 | 0.27 | 0.821 | 0.691 | 0.291 | 0.812 | 0.764 | 0.778 | 0.366 | 0.494 | 1 | 0.555 | 0.292 | 0.363 | 0.468 | 0.319 | 0.954
11 | Cc1cc2ncnn2cc1Nc1ncc2c(n1)n(C1CCOCC1)c(=O)n2C [AZD7648] + CCN(CCO)CCCOc1ccc2c(Nc3cc(CC(=O)Nc4cccc(F)c4)[nH]n3)ncnc2c1 [AZD2811] (first compound max 10 µM, 7x7, partner max 1 µM) | 0.54 | 0.747 | 0.28 | 0.152 | 0.584 | 1 | 0.327 | 0.865 | 0.261 | 0.207 | 0.393 | 0.258 | 1 | 0.313 | 0.192 | 0.313 | 0.458 | 0.233 | 0.215
12 | Cc1cc2ncnn2cc1Nc1ncc2c(n1)n(C1CCOCC1)c(=O)n2C [AZD7648] + CN(C)CCCOc1ccc(-c2ccc3ncc4c(c3c2)n(C2CCOCC2)c(=O)n4C)cn1 [AZD0156] (first compound max 10 µM, 7x7, partner max 1 µM) | 0.221 | 0.269 | 0.261 | 0.0911 | 0.273 | 0.408 | 0.28 | 0.416 | 0.241 | 0.168 | 0.17 | 0.169 | 0.511 | 0.326 | 0.154 | 0.363 | 0.38 | 0.196 | 0.395
13 | Cc1cc2ncnn2cc1Nc1ncc2c(n1)n(C1CCOCC1)c(=O)n2C [AZD7648] + C[C@@H]1COCCN1C2=NC(=NC(=C2)C3(CC3)[S@](=N)(=O)C)C4=C5C=CNC5=NC=C4 [AZD6738] (first compound max 10 µM, 7x7, partner max 10 µM) | 0.804 | 1 | 0.393 | 0.175 | 0.842 | 0.798 | 0.323 | 0.834 | 0.636 | 0.867 | 0.272 | 0.419 | 1 | 0.491 | 0.39 | 0.553 | 0.685 | 0.353 | 0.979
14 | CCc1c2c(nc3ccc(O)cc13)-c1cc3c(c(=O)n1C2)COC(=O)[C@]3(O)CC [SN-38] + O=C(c1cc(Cc2n[nH]c(=O)c3ccccc23)ccc1F)N1CCN(C(=O)C2CC2)CC1 [Olaparib] (first compound max 0.3 µM, 7x7, partner max 10 µM) | 0.974 | 1 | 0.299 | 0.396 | 0.701 | 0.989 | 0.784 |  | 0.681 | 0.527 |  |  |  | 0.694 | 0.506 |  | 0.965 |  | 1
